Source: US10202418B2, “Hydroxy-ethylene derivatives for the treatment of arthrosis” (MERCK PATENT GMBH, priority 2013, dated 2019)
Starred links: 1 amine or outer side, 2 acyl side, 3 side chain; linkers in the order of their positions; H or OH if unused. Non-standard residues stand in square brackets, D forms with d. Residues, ends and D or L forms follow the SMILES beside them. *: point of attachment. Hexanoyl(5S-NH,4S-OH,6-Ph) = O=C(CC[C@H](O)[C@H](Cc1ccccc1)N[*:1])[*:2]; Sta = CC(C)C[C@H](N)[C@@H](O)CC(=O)O; Isovaleryl = CC(C)CC(=O)*

How the values were obtained:
[1] = biological target: cathepsin D isolated from the human liver (Homo sapiens (Human), UniProt P07339); experiment: In-vitro fluorescence assay for identification of cathepsin D inhibitors; assay type: biochemical; conditions: cathepsin D 1.4 nM, pH 5.5; values in E notation; read-out: Cath D IC50
Method: In order to identify modulators of cathepsin D activity, a continuous enzymatic test was carried out with a synthetic peptide which carries a fluorescent group (MCA=(7-methoxycoumarin-4-yl)acetyl) which is quenched by energy transfer from a Dpn (2,4 dinitrophenyl) group on the same molecule, in Greiner 384-well nb microtitre plates. Cleavage of the peptidic substrate by cathepsin D causes an increase in the fluorescence intensity. In order to determine the efficacy of substances, the time-dependent increase in the fluorescence intensity in the presence of the substance was compared with the time-dependent increase in fluorescence in the absence of substances. The reference substance used was pepstatin A (Sigma-Aldrich). The substrate used was MCA-GKPILFFRLK(Dnp)d-R—NH2 (Enzo Life Sciences, Lor-rach). The enzyme employed was cathepsin D isolated from the human liver (Sigma-Aldrich) in a final concentration of 1.4 nM. The test was carried out in 100 mM sodium acetate buffer, 1.25% (v/v) of DMSO, 0.25% (w/v) of Chaps, pH 5.5. 2 μl of each substance solution with serially diluted substance concentration were added to in each case 4 μl of cathepsin D solution and incubated at room temperature for 10 min. The reaction was started by addition of 2 μl of substrate solution (final concentration 5 μM). After carrying out a starting-point fluorescence measurement (excitation wavelength 340 nm/emission wavelength 450 nm) using an Envision multilabel reader (Perkin Elmer), the reaction was incubated at room temperature for 60 min. The amount of peptide fragment cleaved off during the reaction time was subsequently measured by determination of the increase in the fluorescence intensity at 450 nm (excitation wavelength 340 nm).
The IC50 values of the compounds according to the invention can be obtained from Table 2 from Example 1.

[2] = biological target: recombinant human renin (Homo sapiens (Human), UniProt P00797); experiment: In-vitro fluorescence assay for identification of renin-inhibitory activity; assay type: biochemical; conditions: renin 10 nM, pH 7.2
Method: In order to identify modulators of renin activity, a continuous enzymatic test was carried out with a synthetic peptide which carries a fluorescent group Edans (=(5-(aminoethyl)aminonaphthalenesulfonate) which is quenched by energy transfer from a Dabcyl (4′-dimethylaminoazobenzene-4-carboxylate) group on the same molecule, in Greiner 384-well microtitre plates. Cleavage of the peptidic substrate by renin causes an increase in the fluorescence intensity. In order to determine the efficacy of substances, the time-dependent increase in the fluorescence intensity in the presence of the substance was compared with the time-dependent increase in fluorescence in the absence of substances. The reference substance used was renin inhibitor 2 (Z-Arg-Arg-Pro-Phe-His-Sta-Ile-His N-Boc-Lys methyl ester Z) (Sigma-Aldrich). The substrate used was renin FRET substrate I (DABCYL-g-Abu-Ile-His-Pro-Phe-His-Leu-Val-Ile-His-Thr EDANS) (Anaspec, Fremont Calif.). The enzyme employed was recombinant human renin (Proteos, Kalamazoo, Mich.) in a final concentration of 10 nM. The test was carried out in 50 mM Mops buffer, 1.5% (v/v) of DMSO, 0.1% (w/v) of Igepal®, pH 7.2, 0.5% (w/v) of BSA. 2 μl of each substance solution with serially diluted substance concentration were added to in each case 4 μl of renin solution and incubated at room temperature for 15 min. The reaction was started by addition of 4 μl of substrate solution (final concentration 5 μM). After carrying out a starting-point fluorescence measurement (excitation wavelength 340 nm/emission wavelength 495 nm) using an Envision multilabel reader (Perkin Elmer), the reaction was incubated at 37° C. for 60 min. The amount of peptide fragment cleaved off during the reaction time was subsequently measured by determination of the increase in the fluorescence intensity at 495 nm (excitation wavelength 340 nm).

[3] = tested on: rat knee joint; experiment: Anti-hyperalgesic effect in animals (carrageenan-injected rat knee joint, Hargreaves test); assay type: in vivo; conditions: intra-articular, 30 minutes before CAR
Method: In order to induce an inflammation reaction, a carrageenan solution (CAR, 1%, 50 μl) was injected intra-articularly on one side into a rat knee joint. The uninjected side was used for control purposes. Six animals per group were used. The threshold was determined by means of a micrometer screw (medial-lateral on the knee joint), and the thermal hyperalgesia was determined by means of a directed infrared light source by the Hargreaves method (Hargreaves et al., 1988) on the sole of the foot. […] Experimental description of thermal hyperalgesia (Hargreaves test): the experimental animal is placed in a plastic chamber on a quartz sheet. Before testing, the experimental animal is firstly given about 5-15 minutes time to familiarise itself with the environment. As soon as the experimental animal no longer moves so frequently after the familiarisation phase (end of the exploration phase), the infrared light source, whose focus is in the plane of the glass bottom, is positioned directly beneath the rear paw to be stimulated. […] Light reflected by the paw is recorded as long as the experimental animal sits still. Withdrawal of the paw interrupts this reflection, after which the infrared light source is switched off and the time from switching on to switching off is recorded. […]

[4] = tested on: cartilage explant cultures; conditions: pH 5.5, explant cultures; cited from earlier work

Sequence of recombinant human renin (P00797 67-406): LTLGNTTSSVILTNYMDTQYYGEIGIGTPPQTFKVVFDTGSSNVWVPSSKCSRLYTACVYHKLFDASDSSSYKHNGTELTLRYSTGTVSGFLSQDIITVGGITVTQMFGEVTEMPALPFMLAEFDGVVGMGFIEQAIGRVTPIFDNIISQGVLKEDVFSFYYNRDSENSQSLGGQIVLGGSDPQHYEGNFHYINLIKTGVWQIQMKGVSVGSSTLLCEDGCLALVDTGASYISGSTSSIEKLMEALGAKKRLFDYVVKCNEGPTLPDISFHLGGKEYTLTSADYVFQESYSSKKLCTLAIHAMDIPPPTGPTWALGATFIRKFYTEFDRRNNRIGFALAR
Sequence of cathepsin D isolated from the human liver (P07339 65-161): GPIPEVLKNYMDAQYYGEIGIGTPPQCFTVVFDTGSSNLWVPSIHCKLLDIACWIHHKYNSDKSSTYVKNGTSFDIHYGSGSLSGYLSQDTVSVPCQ
Sequence of cathepsin D isolated from the human liver (P07339 169-412): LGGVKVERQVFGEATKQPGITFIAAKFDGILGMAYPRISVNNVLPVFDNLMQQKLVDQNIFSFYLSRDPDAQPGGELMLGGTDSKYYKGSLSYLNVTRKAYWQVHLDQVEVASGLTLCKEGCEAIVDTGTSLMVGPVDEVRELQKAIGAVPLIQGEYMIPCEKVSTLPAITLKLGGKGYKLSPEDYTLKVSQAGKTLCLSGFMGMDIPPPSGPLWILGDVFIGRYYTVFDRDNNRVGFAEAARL

`CC[C@H](C)[C@H](NC(=O)CC[C@H](O)[C@H](Cc1ccccc1)NC(=O)[C@@H](NC(=O)[C@H](CC(C)C)NC(=O)CC(C)C)C(C)C)C(=O)N[C@H](C(=O)O)C(C)C` [Compound A21, (S)-2-[(2S,3S)-2-((4S,5S)-4-Hydroxy-5-{(S)-3-methyl-2-[(S)-4-methyl-2-(3-methylbutyrylamino)pentanoylamino]butyrylamino}-6-phenylhexanoyl-amino)-3-methylpentanoylamino]-3-methylbutyric acid] (Isovaleryl-LV[Hexanoyl(5S-NH,4S-OH,6-Ph)]IV-OH) showed an IC50 [1] of 24 nM and an IC50 ([2]; values in E notation) of 12000 nM.
`CC[C@H](C)[C@H](NC(=O)CC[C@H](O)[C@H](Cc1ccccc1)NC(=O)[C@@H](NC(=O)Cc1cccc(OC(F)(F)F)c1)C(C)C)C(=O)N[C@H](C(=O)O)C(C)C` [Compound A22, (S)-2-[(2S,3S)-2-((4S,5S)-4-Hydroxy-5-{(S)-3-methyl-2-[2-(3-trifluoro-methoxyphenyl)acetylamino]butyrylamino}-6-phenylhexanoylamino)-3-methylpentanoylamino]-3-methylbutyric acid] showed an IC50 [1] of 350 nM and an IC50 [2] greater than 30000 nM.
In the case of `C[C@]12C=CC(=O)C=C1CC[C@H]1[C@@H]3C[C@@H](O)[C@](O)(C(=O)CO)[C@@]3(C)C[C@H](O)[C@@]12F` [TAC, Triamcinolone], the “reduction of CAR-induced swelling” value [3] is reported as “capable of reducing the CAR-induced swelling”.
In the case of `CC(C)CC(=O)N[C@H](C(=O)N[C@H](C(=O)N[C@@H](CC(C)C)[C@@H](O)CC(=O)N[C@@H](C)C(=O)N[C@@H](CC(C)C)[C@@H](O)CC(=O)O)C(C)C)C(C)C` [pepstatin] (Isovaleryl-VV[Sta]A[Sta]-OH), the “inhibition of autodigestion of the cartilage” value [4] is given as “inhibited virtually completely”.
For `CC(C)c1nc(CN(C)C(=O)N[C@H](C(=O)N[C@@H](Cc2ccccc2)C[C@H](O)[C@H](Cc2ccccc2)NC(=O)OCc2cncs2)C(C)C)cs1` [ritonavir], the “inhibition of autodigestion of the cartilage” value [4] is given as “inhibited virtually completely”.
